Legend:
Type in all cases: in vivo
weeds = test: Pre-emergence test (greenhouse), activity against weeds; conditions: in words
How it was run: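 Compound formulated in acetone with alkylaryl polyglycol ether emulsifier, diluted in water, and watered onto soil about 24 h after sowing, dosed by application rate per unit area. Damage rated after three weeks as % versus untreated control (0% = no action).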

Maize = test: Pre-emergence test/Greenhouse, Maize; conditions: in vivo
How it was run: (§1)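 Percent damage relative to untreated control plants, scored three weeks after treatment, is the read-out (0% meaning no effect). Treatment consisted of watering the soil with an emulsified aqueous preparation roughly 24 h after seeds were sown, at constant water volume per area.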

Soya beans = test: Pre-emergence test/Greenhouse, Soya beans; conditions: in vivo
How it was run: as §1

Lolium = test: Pre-emergence test/Greenhouse, Lolium; conditions: after three weeks
How it was run: as §1

Poa = test: Pre-emergence test/Greenhouse, Poa; conditions: after three weeks
How it was run: as §1

Sorghum = test: Pre-emergence test/Greenhouse, Sorghum; conditions: after three weeks
How it was run: as §1

Ambrosia = test: Pre-emergence test/Greenhouse, Ambrosia; conditions: after three weeks
How it was run: as §1

Matricaria = test: Pre-emergence test/Greenhouse, Matricaria; conditions: after three weeks
How it was run: as §1

Solanum = test: Pre-emergence test/Greenhouse, Solanum; conditions: after three weeks
How it was run: as §1

Compound | activity against weeds (weeds) | degree of damage to the plants (% damage vs untreated control), Maize (Maize) [%] | degree of damage to the plants (% damage vs untreated control), Soya beans (Soya beans) [%] | degree of damage to the plants (% damage vs untreated control), Lolium (Lolium; 125 g of ai./ha) [%] | degree of damage to the plants (% damage vs untreated control), Poa (Poa; 125 g of ai./ha) [%] | degree of damage to the plants (% damage vs untreated control), Sorghum (Sorghum; 125 g of ai./ha) [%] | degree of damage to the plants (% damage vs untreated control), Ambrosia (Ambrosia; 125 g of ai./ha) [%] | degree of damage to the plants (% damage vs untreated control), Matricaria (Matricaria; 125 g of ai./ha) [%] | degree of damage to the plants (% damage vs untreated control), Solanum (Solanum; 125 g of ai./ha) [%] | also measured
CCOC(=O)c1cccc(Cl)c1S(=O)(=O)NC(=O)n1nc(SC)n(C)c1=O [Example 131] | very strong activity against weeds | 0 | 0 |  |  |  |  |  |  | degree of damage to the plants (% damage vs untreated control), Lolium (Lolium; 250 g of ai./ha): 95%; degree of damage to the plants (% damage vs untreated control), Poa (Poa; 250 g of ai./ha): 90%; degree of damage to the plants (% damage vs untreated control), Sorghum (Sorghum; 250 g of ai./ha): 90%; degree of damage to the plants (% damage vs untreated control), Ambrosia (Ambrosia; 250 g of ai./ha): 95%; degree of damage to the plants (% damage vs untreated control), Matricaria (Matricaria; 250 g of ai./ha): 80%; degree of damage to the plants (% damage vs untreated control), Solanum (Solanum; 250 g of ai./ha): 95%
CCCc1nn(C(=O)[N-]S(=O)(=O)c2c(C)cccc2C(=O)OC)c(=O)n1C.[Na+] [Example 154] | very strong activity against weeds | 0 | 0 |  |  |  |  |  |  | degree of damage to the plants (% damage vs untreated control), Lolium (Lolium; 60 g of ai./ha): 95%; degree of damage to the plants (% damage vs untreated control), Poa (Poa; 60 g of ai./ha): 95%; degree of damage to the plants (% damage vs untreated control), Sorghum (Sorghum; 60 g of ai./ha): 95%; degree of damage to the plants (% damage vs untreated control), Ambrosia (Ambrosia; 60 g of ai./ha): 70%; degree of damage to the plants (% damage vs untreated control), Matricaria (Matricaria; 60 g of ai./ha): 70%; degree of damage to the plants (% damage vs untreated control), Solanum (Solanum; 60 g of ai./ha): 90%
CCOc1nn(C(=O)NS(=O)(=O)c2c(OC)cccc2C(=O)OC)c(=O)n1C [Example 136] | very strong activity against weeds | 30 | 20 | 95 | 95 | 90 | 80 | 90 | 95 | 
CCCOC(=O)c1cccc(C)c1S(=O)(=O)NC(=O)n1nc(OCCC)n(C)c1=O [Example 22] | very strong activity against weeds | 20 | 10 | 95 | 95 | 80 | 95 | 95 | 95 | 
COC(=O)c1cccc(C)c1S(=O)(=O)NC(=O)n1nc(SC)n(OC)c1=O [Example 156] | very strong activity against weeds | 0 | 10 |  |  |  |  |  |  | degree of damage to the plants (% damage vs untreated control), Lolium (Lolium; 60 g of ai./ha): 70%; degree of damage to the plants (% damage vs untreated control), Poa (Poa; 60 g of ai./ha): 90%; degree of damage to the plants (% damage vs untreated control), Sorghum (Sorghum; 60 g of ai./ha): 70%; degree of damage to the plants (% damage vs untreated control), Ambrosia (Ambrosia; 60 g of ai./ha): 70%; degree of damage to the plants (% damage vs untreated control), Matricaria (Matricaria; 60 g of ai./ha): 95%; degree of damage to the plants (% damage vs untreated control), Solanum (Solanum; 60 g of ai./ha): 70%
Cc1nc(C(=O)NS(=O)(=O)c2c(C)cccc2C(=O)OC(C)C)no1 [Example 12] | very strong activity against weeds | 0 | 0 | 80 | 80 | 60 | 95 | 95 | 95 | 
CCCOC(=O)c1cccc(C)c1S(=O)(=O)NC(=O)n1nc(OC)n(C)c1=O [Example 20] | very strong activity against weeds | 10 | 0 | 95 | 95 | 90 | 95 | 95 | 95 | 
